# In patent US8227240B2, “Systems for screening pharmaceutical chemicals” (The Washington University, priority 2001, dated 2012):
# Where two headings read alike, the source gives them in different places.
# How the values were obtained:
# [1] = test system: ring tissue model; assay: Contractile force developed by ring sample during tissue development (matrix remodeling and compression); type: cell-based
# Description: The contractile force developed by the ring sample during matrix remodeling and compression can be measured by connecting the ring to the force measuring apparatus as described above within about 1-2 hours after collagen gelation. The cells begin to exert a force on the matrix after this time. Then the increase of force during tissue development (remodeling and compression) is observed over time.
# Maximum force is typically reached within 15 to 20 hours. This process was also disrupted by several inhibitors as illustrated in FIGS. 18(b)-(d).
# [2] = test system: myosin ATPase; assay: Inhibition of contractile force activated by 20% FBS in ring sample; type: cell-based; conditions: after prior addition of 20% FBS; 2, 4, 20, and 40 μM BDM
# Description: In a related experiment, FBS was added to activate the contractile force and then a myosin ATPase inhibitor was added.
# [3] = test system: bio-artificial tissues (extracellular matrix, cellular contractility); assay: Tissue indentation device: mechanical changes in ECM, EA and pre-tension (Example 17); type: cell-based
# Description: To verify the sensitivity for detecting changes in the mechanical properties of extracellular matrix (ECM) by the device, different concentrations of collagenase (1, 10, 100 U/ml) were administered to the different sets of bio-artificial tissues at time indicated by the arrow (b) in FIG. 33. All the bio-artificial tissues were treated with Endothelin-1 (50 nM, arrow a) to make sure the cells were responding to a contractile stimuli.
# Experimental groups are separated into control (no treatment, filled circle), and treatments with 1, 10, 100 U/ml collagenase indicated by open circle, open triangle, and open square, respectively. After addition of 1 U/ml collagenase, the pre-tension, i.e. cellular contractility, was maintained compared to that of untreated control. […] While the collagenase digested the collagen matrix and affected ECM stiffness, the cell-ECM connection was slowly disrupted. Therefore, the cellular contractility was decreased especially with higher concentrations of collagenase. Nevertheless, the dataset indicated the measurement system sensitively detected incremental changes in ECM mechanics depending on the level of collagen degradation by the increasing concentrations of collagenase. At the 20 min time point (10 min after collagenase treatment), the apparent reduction of EA, but not pre-tension, indicates the EA was more sensitive to treatments affecting the extracellular matrix.
# [4] = test system: rat adult cardiac fibroblasts (RACFs); assay: Contractile response of ring samples to agonists, RACFs; type: cell-based
# Source text: (§1) Profiles of contractile response to different agonists applied to ring samples were made using chicken embryo cardiac fibroblasts (CECFs) and rat adult cardiac fibroblasts (RACFs) and are shown in FIGS. 16(a)-(d) and FIGS. 16(e)-(h), respectively.
# (§2) Time dependent force profiles after addition of FBS (20% v/v) were different depending on the pretreatment by different agonists.
# [5] = test system: smooth muscle cells (SMCs) isolated from rat aorta; assay: Tissue indentation device: acute time-dependent cell force (Example 18); type: cell-based; conditions: measured at 0, 1, 4 and 7 min; 50 nM Norepinephrine, 100 nM Endothelin, 10% FBS (FIG. 34)
# Description: To test the system's ability to measure acute time-dependent response after treating the ETs, vasoconstrictors, norepinephrine and endothelin-1 and general constricting agent, fetal bovine serum (FBS) were added to bio-artificial tissues with smooth muscle cells (SMCs) isolated from rat aorta (10^6 SMCs per ml of bio-artificial tissue solution at bio-artificial tissue formation). The force generated by these bio-artificial tissues was measured at 0, 1, 4 and 7 min after adding the agents. […] The total acquisition time for 64 data points was 40 minutes.
# [6] = test system: chicken embryo cardiac fibroblasts (CECFs); assay: Contractile response of ring samples to agonists, CECFs; type: cell-based
# Source text: as §1, §2
# [7] = test system: rat embryo fibroblast derived cell line (REF52); assay: Force response of ring samples to physiological activators without stretching; type: cell-based; conditions: each drug added to a single tissue ring
# Description: Ring samples made using a rat embryo fibroblast derived cell line (REF52) were prepared as described previously herein. The length of the tissue was maintained at a constant level during the test. Each of the drugs indicated in FIG. 15 was added to a single tissue ring.
# [8] = test system: NIH 3T3 cells; assay: Stress relaxation of tension in connective tissue models; type: cell-based; conditions: different amounts
# Description: The connective tissue models made using NIH 3T3 cells were treated with different amounts of the candidate pharmaceutical, Y27632, a Rho kinase specific inhibitor, which has been tested for reducing tension of smooth muscle strips such as rabbit aortic rings (Nature 239 (1997) 990-993). It is one of the promising drug candidates for treating hypertension in the future. Depending on the agonists used to stimulate the tissue contraction, the degree of reduction in tension is different (FIG. 21). […] Thus, the methods are useful for screening pharmaceutical candidates.
# [9] = test system: chicken cardiac cells; assay: Force response of regular and miniaturized cardiac tissue models; type: cell-based; conditions: regular and miniaturized tissues, after calf serum
# Description: The sample sizes are determined by the diameters of the mandrels and inner diameters of the wells. […] Miniaturized samples made using chick cardiac cells show twitch responses. Therefore this system can be used to test the effects of pharmaceutical candidates treating cardiac dysfunctions (Insert in FIG. 9b)
# [10] = test system: chicken embryo fibroblasts (CEF's) tissue model; assay: Ring system: isometric force and dynamic stiffness of fibroblast populated matrices (FPM); type: cell-based; conditions: for IC50: serial additions, sigmoidal dependence
# Description: Chicken embryo fibroblasts (CEF's) isolated from 11-day chicken embryos (Spafas Inc., Preston, Conn.) were maintained in Dulbecco's modified Eagle's medium (DMEM) supplemented with 10% fetal calf serum (FCS), penicillin at 50 units/ml, and streptomycin at 50 microgram/milliliter. The CEF's used to make tissue models were passaged once or twice from primary cultures. Monomeric collagen solubilized in 0.02 M acetic acid (Upstate Biotechnology Inc., Lake Placid, N.Y.) was neutralized at 4° C. with 0.1 N NaOH and mixed with concentrated DMEM stock to yield a final normal DMEM concentration. The fibroblasts suspended by trypsin (FIG. 1a) were mixed with the collagen solution (FIG. 1b), the cell suspension was poured into Teflon casting wells (FIG. 1c), and the wells were incubated at 37° C. with 5% CO2 (FIG. 1d). The collagen polymerized within 15-30 min and fibroblasts were captured within the hydrated collagen gel. The collagen gel formed a ring (3 mm thick, 3 cm diameter) between the inner wall of the cylindrical well and the central mandrel. While in culture the cells compressed this ring, reducing its volume about 10-fold (thickness 200-300 μm). The ring could then be removed from the mandrel (FIG. 1e and FIG. 1f) and mounted on the measuring instrument (FIG. 1g) as described below.
# Mechanical measurements were carried out using a ring system. After two days of incubation (serum starvation for the final 12-16 hours), the mandrel was removed from the casting well and the tissue model-ring was removed gently from the mandrel. As shown in FIG. 1 the tissue model-ring was looped over the triangular hook connected to an isometric force transducer (Model 52-9545, Harvard Apparatus, South Natick, Mass.) by a fine, flexible gold chain. The ring was also looped over a horizontal bar connected to a sliding element moveable vertically and linearly by a stepper motor (P/N 1-19-3400 24V DC 1.8° step size, Haward Industry, St. Louis, Mo.) controlled by a micro-stepping driver (IM483 Intelligent Motion Systems) to measure stress and dynamic modulus of the sample. The micro-stepping driver was controlled by a personal computer with software which enabled the stepper motor to achieve smooth motion. An analog-to-digital signal converter (CIO-DAS1602/16, Computer Boards, Inc., Mansfield, Mass.) attached to the computer translated the voltage signal from the isometric force transducer to a digital signal for recording on a data recorder. The stepper motor controlled the stretching of the tissue. Force exerted by or on the tissue was transmitted to the force transducer by the gold chain.
# The tissue sample was submerged in 50 ml Hepes-buffered DMEM (pH 7.4) in a thermo-regulated organ bath (Harvard Apparatus, South Natick, Mass.) maintained at 37° C. The two horizontal bars over which the ring was looped were initially set to hold the ring at its original contour length (corresponding to the circumference of the mandrel).
# Typically, for stiffness measurements, the tissue model is subjected to a sequence of stretch cycles. In each cycle the tissue model is slowly stretched from 0 to 20% over 30 minutes and the tissue model is then returned at the same rate to its original length by actuation of the stepper motor. The resulting increase in contractile force during the first stretch is substantially larger than the contractile force in subsequent stretches (FIG. 2a). For each stretch after the first stretch there is a further small decrease in maximum contractile force, but the decrease becomes negligible after sufficient pre-stretching. The tissue models produced contractile force in response to the activation of fibroblasts by serum. This contractile force was abolished by disrupting the actin cytoskeleton with cytochalasin D (2 μM) (FIG. 2b).
# The amplitude of the force response divided by the stretching amplitude corresponded to the dynamic stiffness of the sample subjected to a preselected sinusoidal length change. […]
# [11] = test system: tissue models
compound,measurement,setting,value
CO[C@H]1[C@@H](OC)C[C@H](C)[C@@H](OC)C2=CC(=O)C=C(NC(=O)/C(C)=C/C=C\[C@H](OC)[C@@H](OC(N)=O)/C(C)=C/[C@@H]1C)C2=O [herbimycin A],maximum force during ring tissue development,[1],reduces the maximum force
"CC(=O)C(C)=NO [BDM, butane dione monoxime]",fully activated contractile force,[2],"reduced, in a dose dependent manner"
"CC[C@H](C)[C@H](NC(=O)[C@H](CC(=O)O)NC(=O)[C@H](CC(C)C)NC(=O)[C@H](Cc1c[nH]cn1)NC(=O)[C@@H]1CSSC[C@H](N)C(=O)N[C@@H](CO)C(=O)N[C@H]2CSSC[C@H](NC(=O)[C@H](CCC(=O)O)NC(=O)[C@H](CCCCN)NC(=O)[C@H](CC(=O)O)NC(=O)[C@H](CCSC)NC(=O)[C@H](CC(C)C)NC(=O)[C@H](CO)NC(=O)[C@H](CO)NC2=O)C(=O)N[C@@H](C(C)C)C(=O)N[C@@H](Cc2ccc(O)cc2)C(=O)N[C@@H](Cc2ccccc2)C(=O)N1)C(=O)N[C@H](C(=O)N[C@@H](Cc1c[nH]c2ccccc12)C(=O)O)[C@@H](C)CC [endothelin, endothelin-1]",pre-tension (cellular contractility),[3]; Endothelin-1 50 nM,increased immediately
same,contractile response of ring,[4],contracted rings
same,cell force (active force) after adding the agent,[5],increased over time
same,time at which cell force reached its maximum value,[5],7 min
same,contractile response of ring,[6],contracted rings
same,force response of tissue ring at constant length,[7],produce different forces
"NC[C@H](O)c1ccc(O)c(O)c1 [Norepinephrine, norepinephrine]",cell force (active force) after adding the agent,[5],increased over time
same,time at which cell force reached its maximum value,[5],7 min
same,force response of tissue ring at constant length,[7],reduced the initial base line force
lysophosphatidic acid [LPA],force response of tissue ring at constant length,[7],produce different forces
C[C@@H](N)[C@H]1CC[C@H](C(=O)Nc2ccncc2)CC1 [Y27632],tension of connective tissue models,[8],reduces the tension
same,force of cardiac tissue models,[9],decreased
COC(=O)Nc1nc2ccc(C(=O)c3cccs3)cc2[nH]1 [nocodazole],maximum force during ring tissue development,[1],reduces the maximum force
collagenase,pre-tension (cellular contractility) compared to untreated control,"[3]; 1 U/ml collagenase, after Endothelin-1 50 nM",maintained
same,EA (tissue stiffness),"[3]; 1 U/ml collagenase, about 10 min after treatment",began to be reduced
same,pre-tension (cellular contractility),"[3]; 10 U/ml collagenase, for ~10 min",didn't reduce the pre-tension significantly
same,drop of EA (tissue stiffness),"[3]; 100 U/ml collagenase, ~10 min after treatment",already significant
NC(=O)CC[C@@H]1NC(=O)[C@H](Cc2ccccc2)NC(=O)[C@H](Cc2ccc(O)cc2)NC(=O)[C@@H](N)CSSC[C@@H](C(=O)N2CCC[C@H]2C(=O)N[C@@H](CCCN=C(N)N)C(=O)NCC(N)=O)NC(=O)[C@H](CC(N)=O)NC1=O [vasopressin],contractile response of ring,[4],responded
same,contractile response of ring,[6],did not response
same,force response of tissue ring at constant length,[7],produce different forces
"EGF: epidermal growth factor (NSDSECPLSHDGYCLHDGVCMYIEALDKYACNCVVGYIGERCQYRDLKWWELR; Epidermal growth factor; UniProt P01133 971-1023, looked up)",contractile response of ring,[6],did not respond to any dose
Thrombin,force response of tissue ring at constant length,[7],produce different forces
"C/C1=C/C(=O)O[C@@H]2C[C@@H](CC[C@H](C)/C=C\CC1)O[C@@](O)([C@@H]1CSC(=O)N1)C2 [LA-B, Latrunculin B]",concentration at which force and dynamic stiffness reached their minimum values,[10],~600 nM
same,concentration range over which tension and stiffness decrease,[10],single decade
same,lowest concentration at which force and dynamic stiffness were significantly diminished,[10],40 nM
same,effect on viscosity of the tissues (phase angle δ),[10]; data not shown,relatively minor effect
same,IC50,[10]; read-out: estimated half maximum concentration for reducing the force,53 nM
same,IC50,[10]; read-out: estimated half maximum concentration for reducing the stiffness,68 nM
CCO [ethanol],force and stiffness of tissue models,[11]; 10% solution of ethanol,reduces force and stiffness of tissue models significantly
same,level of baseline force maintained by the viable cells,[11]; different dose of ethanol,decrease
CNC[C@H](O)c1cccc(O)c1 [phenylephrine],force response of tissue ring at constant length,[7],reduced the initial base line force
"angiotensin II (DRVYIHPF; Angiotensin-2; UniProt P01019 25-32, looked up) [agonist]",contractile response of ring,[4],responded
same,contractile response of ring,[6],did not response
